Like-named read-outs stand apart in the source and are kept apart here.
What was measured:
A549 NSCLC cells = test: MTT colorimetric in vitro growth inhibition assay; format: cell-based, human; details: Homo sapiens, A549, 72 h, read-out: IC50 (nM) A549
Source text: (§1) The histological types and origins of the eight human cancer cell lines that were used for the MTT colorimetric assay are detailed in the legend of Table 1. Two mouse cancer cell lines were also used, the CT26.WT colon cancer cell line (ATCC code CRL-2638) and the B16F10 melanoma cell line (ATCC code CRL-6475). Both cell lines were obtained from the American Type Culture Collection (ATCC, Manassas, VA). A control cell line (human NHDF fibroblasts) was obtained from PromoCell (code c-12300; Heidelberg, Germany). The cell lines detailed in Figure 2A are a generous gift from the National Cancer Institute (NCI, Bethesda, USA) to Steven Karlish’s lab.
(§2) The cancer cells were cultured in RPMI (Lonza, Verviers, Belgium) medium supplemented with 10% heat-inactivated fetal calf serum (Lonza). All culture media were supplemented with 4 mM glutamine, 100 μg/mL gentamicin, 200 U/mL penicillin and 200 μg/mL streptomycin (Lonza). The NHDF fibroblasts were cultured in Lonza medium cc3132 KT FGM-2 BulletKit.
(§3) The overall growth level of the human cancer cell lines was determined using a colorimetric MTT (3-(4,5-dimethylthiazol-2yl)-2,5-diphenyltetrazolium bromide, Sigma, Belgium) assay as detailed previously. Briefly, this test measures the number of metabolically active (thus living) cells that are able to transform the yellow MTT into the blue formazan dye via a mitochondrial reduction involving succinate dehydrogenase. The amount of formazan obtained at the end of the experiment (measured by spectrophotometry) is directly proportional to the number of living cells. The determination of the optical density in the control compared to the treated cells therefore enables quantitative measurements of the effects of compounds on the growth of normal as well as cancer cells in vitro.
(§4) Each experimental condition was performed in six replicates.

Hs683 glioma cells = test: MTT colorimetric in vitro growth inhibition assay; format: cell-based, human; details: Homo sapiens, Hs 683, 72 h, read-out: IC50 (nM) Hs683
Source text: as §1, §2, §3, §4

[1] = system: MCF-7 breast cancer cells; test: MTT colorimetric in vitro growth inhibition assay; format: cell-based, human; details: Homo sapiens, MCF7, 72 h, read-out: IC50 (nM) MCF-7
Source text: as §1, §2, §3, §4

HT-29 colon cancer cells [2] = test: MTT colorimetric in vitro growth inhibition assay; format: cell-based, human; details: Homo sapiens, HT-29, 72 h, read-out: IC50 (nM) HT-29
Source text: as §1, §2, §3, §4

SKMEL-28 melanoma cells = test: MTT colorimetric in vitro growth inhibition assay; format: cell-based, human; details: Homo sapiens, SK-MEL-28, 72 h, read-out: IC50 (nM) SKMEL-28
Source text: as §1, §2, §3, §4

U373 glioma cells = test: MTT colorimetric in vitro growth inhibition assay; format: cell-based, human; details: Homo sapiens, U373 MG, 72 h, read-out: IC50 (nM) U373
Source text: as §1, §2, §3, §4

T98G glioma cells = test: MTT colorimetric in vitro growth inhibition assay; format: cell-based, human; details: Homo sapiens, T98G, 72 h, read-out: IC50 (nM) T98G
Source text: as §1, §2, §3, §4

[3] = system: PC-3 prostate cancer cells; test: MTT colorimetric in vitro growth inhibition assay; format: cell-based, human; details: Homo sapiens, 72 h, read-out: IC50 (nM) PC-3
Source text: as §1, §2, §3, §4

HT-29 colon cancer cells [4] = test: O2 consumption rate (MitoXpress assay); format: cell-based, human; details: compounds at their IC50 (MTT), 24 h
Protocol: For enzymatic determination of lactate production, confluent tumor cells were incubated with 10 mM glucose for 24 hours. Culture medium was then filtered through centrifugation columns with a 10 KDa cutoff, and L-lactate concentrations were determined on an ISCUSflex analyzer (CMA Microdialysis AB, Solna, Sweden). O2 consumption was determined using the MitoXpress assay according to the manufacturer’s instructions (LuxCell Biosciences, Cork, Ireland). Briefly, after adding the oxygen probe to tumor cells cultured for 24 hours in 96-well microplates with or without the tested compounds, the wells were sealed with mineral oil, and respiration was evaluated using time-resolved fluorescent plate readers. Under these conditions, O2 depletion was translated into an increase in probe phosphorescence signal, and the slope of this signal was used to derive the O2 consumption rate.
Figure 6 Metabolic profiling of human HT29 colon cancer cells treated with cardiotonic steroids. A: Extracellular lactate concentrations and B: O2 consumption rates in HT29 cancer cells treated with the indicated compounds at their IC50in vitro growth inhibitory concentrations (see Table 1). The data (mean ± SEM from triplicates) are expressed in mM lactate accumulated in the extracellular medium after 24 hours and arbitrary units derived from time-resolved fluorescent signal.min^-1.

[5] = system: human cancer cells (A549, U373, Hs683, T98G, MCF-7, SKMEL-28, PC-3, HT-29); test: MTT growth inhibition, mean over the eight human cancer cell lines; format: cell-based; details: 72 h, read-out: IC50 (nM) Mean ± SEM
Source text: as §1, §2, §3, §4

B16F10 melanoma cells = test: MTT growth inhibition in mouse cancer cells; format: cell-based; details: B16-F10; mouse cancer cell line; read-out: IC50 growth inhibitory concentration in B16F10 melanoma cells
Source text: as §1
(§5) The cancer cells were cultured in RPMI (Lonza, Verviers, Belgium) medium supplemented with 10% heat-inactivated fetal calf serum (Lonza). […]
as §3, with “Briefly, this test measures the number of metabolically active (thus living) cells that are able to transform the yellow MTT into the blue formazan dye via a mitochondrial reduction involving succinate dehydrogenase.” left out, “vitro. […]” for “vitro.”

CT26 colon cancer cells = test: MTT growth inhibition in mouse cancer cells; format: cell-based; details: mouse cancer cell line, read-out: IC50 growth inhibitory concentration in CT26 colon cancer cells
Source text: as §1, §5
as §3, with “Briefly, this test measures the number of metabolically active (thus living) cells that are able to transform the yellow MTT into the blue formazan dye via a mitochondrial reduction involving succinate dehydrogenase.” left out, “vitro. […]” for “vitro.”

NHDF fibroblasts = test: MTT growth inhibition in non-cancerous control cell line; format: cell-based; details: NHDF, normal human fibroblasts, read-out: in vitro growth inhibitory effects (IC50) in NHDF fibroblasts
Source text: as §1, §2, §3, §4

human α2β1 NaK complex [6] = target: T1, human α2β1 NaK complex (Homo sapiens, UniProt P50993); test: 3H-ouabain competitive displacement on P. pastoris membranes; format: binding
T1 construct: made in house; host or cells: Pichia pastoris strain SMD1165 (membranes)
Protocol: (§6) K0.5 was calculated using a one site inhibition model: B/BCG=0 = K0.5/([CG] + K0.5). […] Binding of each cardiac glycoside was estimated in 3 separate experiments.
(§7) Average KD or Ki values ± SEM for each isoform were calculated. Statistical significance was calculated by the unpaired Students t-test. P values <0.05 were considered significant.

human α3β1 NaK complex [7] = target: T2, human α3β1 NaK complex (Homo sapiens, UniProt P13637); test: as above; format: binding
T2 construct: made in house; host or cells: Pichia pastoris strain SMD1165 (membranes)
Protocol: as §6, §7

human α1β1 NaK complex [8] = target: T3, human α1β1 NaK complex (Homo sapiens, UniProt P05023); test: as above; format: binding; details: 3H-ouabain displacement, three independent experiments; read-out: Affinity (nM) α-1 (KD ± SEM)
T3 construct: made in house; host or cells: Pichia pastoris strain SMD1165 (membranes)
Protocol: as §6, §7

human α2β1 NaK complex [9] = target: T1, human α2β1 NaK complex; details: ref Katz et al. [5], cited from earlier work
human α3β1 NaK complex [10] = target: T2, human α3β1 NaK complex; details: ref Katz et al. [5], cited from earlier work
human α1β1 NaK complex [11] = target: T3, human α1β1 NaK complex; details: 3H-ouabain displacement; ref Katz et al. [5]; read-out: Affinity (nM) α-1 (KD ± SEM); cited from earlier work
[12] = three days of culture, * three independent experiments, ** one experiment, six replicates

C[C@@H]1O[C@@H](O[C@H]2CC[C@@]3(C)[C@H](CC[C@@H]4[C@@H]3[C@H](O)C[C@]3(C)[C@@H](c5ccc(=O)oc5)CC[C@]43O)C2)[C@H](O)[C@H](O)[C@H]1O [Gamabufotalin-rhamnoside]
IC50 (A549 NSCLC cells): 3 ± 1 nM
IC50 (Hs683 glioma cells): 4 ± 1 nM
IC50 [1]: 17 ± 5 nM
IC50 (HT-29 colon cancer cells [2]): 8 ± 1 nM
IC50 (SKMEL-28 melanoma cells): 18 ± 7 nM
IC50 (U373 glioma cells): 6 ± 2 nM
IC50 (T98G glioma cells): 7 ± 1 nM
IC50 [3]: 6 ± 1 nM
O2 consumption rate (cell respiration) (HT-29 colon cancer cells [4]): significantly reduced
IC50 ([5]; Homo sapiens): 9 ± 2 nM
IC50 (B16F10 melanoma cells): 700 nM
IC50 (CT26 colon cancer cells): 900 nM
IC50 (NHDF fibroblasts): 1840 nM
Kd (human α2β1 NaK complex [6]; 3H-ouabain displacement, three independent experiments, read-out: Affinity (nM) α-2 (KD ± SEM)): 36 ± 10 nM
Selectivity α-1 / α-2 (human α2β1 NaK complex [6]; ratio of KD α-1 to KD α-2): 0.8
Kd (human α3β1 NaK complex [7]; 3H-ouabain displacement, three independent experiments, read-out: Affinity (nM) α-3 (KD ± SEM)): 17 ± 2 nM
Selectivity α-1 / α-3 (human α3β1 NaK complex [7]; ratio of KD α-1 to KD α-3): 1.8
Kd (human α1β1 NaK complex [8]): 30 ± 7 nM

C[C@]12CC[C@H](O)C[C@H]1CC[C@@H]1[C@@H]2CC[C@]2(C)[C@@H](C3=CC(=O)OC3)[C@@H](O)C[C@]12O [Gitoxigenin, gitoxigenin]
IC50 (A549 NSCLC cells; [12]): 1720 nM
IC50 (Hs683 glioma cells; [12]): 653 nM
IC50 [1, 12]: 5190 nM
IC50 (HT-29 colon cancer cells [2]; [12]): 4400 nM
IC50 (SKMEL-28 melanoma cells; [12]): > 10000 nM
IC50 (U373 glioma cells; [12]): 4480 nM
IC50 (T98G glioma cells; [12]): 3590 nM
IC50 [3, 12]: 3960 nM
IC50 ([5]; mean over eight human cancer cell lines, three days of culture): > 4250 nM
Kd (human α2β1 NaK complex [9]; 3H-ouabain displacement, read-out: Affinity (nM) α-2 (KD ± SEM)): 1180 nM
Selectivity α-1 / α-2 (human α2β1 NaK complex [9]; ratio of KD α-1 to KD α-2): 0.4
Kd (human α3β1 NaK complex [10]; 3H-ouabain displacement, read-out: Affinity (nM) α-3 (KD ± SEM)): 1050 nM
Selectivity α-1 / α-3 (human α3β1 NaK complex [10]; ratio of KD α-1 to KD α-3): 0.5
Kd (human α1β1 NaK complex [11]): 500 ± 90 nM
